# Tested on: M. tuberculosis H37Ra WT
# Format: cell-based, Mycobacterium tuberculosis
smiles,measurement,value
"NC(=O)c1cnccn1 [PZA, pyrazinamide]",residual viability of H37Ra WT compared with PZA resistant mutants,obviously decreased
